Test systems include DLD-1 colon; HOP-18 NSCLC; HOP-62 NSCLC; KM20L2 colon; MALME-3M melanoma; SF-268 CNS; SF-295 CNS; U251 CNS; UACC-62 melanoma; XF 498 CNS.
What all share (experiment): growth of human tumour cells (NCI), 48 h

Each structure is given as a SMILES string.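 Growth conditions: 96-well plates. Treatment: test compound, 48 hours, 5 concentrations. Analysis: linear interpolation between bracketing concentrations; unreached endpoints set to highest concentration. GI50 is the concentration that inhibits growth by half. Definition used: TGI = concentration required for complete inhibition of growth.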

Regarding `CCn1c2c(n(CC)c1=S)-c1c(n(CC)c(=S)n1CC)SSSS2`, the TGI in the test with DLD-1 colon is 5.73 µM; in the test on HOP-18 NSCLC, 22 µM; in the test with HOP-62 NSCLC it was above 100 µM; in the test on KM20L2 colon it was 29.5 µM; in the test with MALME-3M melanoma, 9.08 µM; in the test on SF-268 CNS, 44.4 µM. Besides, the TGI was above 80.3 µM with SF-295 CNS, 45.5 µM in the test with U251 CNS, 18.6 µM in the test on UACC-62 melanoma and 4.08 µM in the test with XF 498 CNS.
For the molecule `N/N=C1\C(=O)N(C2CCCCC2)C(=O)C1C(=O)NC1CCCCC1` (stereo not given), the TGI with DLD-1 colon is above 100 µM; in the test on HOP-18 NSCLC, above 100 µM; with HOP-62 NSCLC it was above 100 µM; in the test with KM20L2 colon it was 39.9 µM; in the test on MALME-3M melanoma, above 100 µM; with SF-268 CNS, above 100 µM. For the same molecule, the TGI in the test on SF-295 CNS, in the test with U251 CNS, in the test on UACC-62 melanoma and in the test with XF 498 CNS was above 100 µM each time.
With `Cc1ccc(-c2nc(SCC(=O)O)n[nH]2)cc1`, the TGI in the test on DLD-1 colon, with HOP-18 NSCLC, in the test on HOP-62 NSCLC, in the test with KM20L2 colon, with MALME-3M melanoma and in the test with SF-268 CNS was above 100 µM each time. Also, the TGI in the test with SF-295 CNS, in the test with U251 CNS, in the test with UACC-62 melanoma and in the test with XF 498 CNS was above 100 µM each time.
Take `CN(C)c1ccc(N=Cc2c([O-])ccc3ccccc23)cc1.[C-]#[O+].[C-]#[O+].[Ir]`: the GI50 in the test with DLD-1 colon is 17.4 µM; with HOP-18 NSCLC, 13 µM; in the test on HOP-62 NSCLC, 44.1 µM; in the test with KM20L2 colon, 18.7 µM; with MALME-3M melanoma, 20.7 µM; in the test on SF-268 CNS, 22.5 µM. For the same molecule, the GI50 was 20 µM with SF-295 CNS, 15.7 µM in the test on U251 CNS, 17.2 µM in the test with UACC-62 melanoma and 20.5 µM in the test with XF 498 CNS. Besides, the TGI was 37.6 µM in the test on DLD-1 colon; 27.6 µM in the test with HOP-18 NSCLC; above 100 µM in the test on HOP-62 NSCLC; 33.4 µM with KM20L2 colon; 41.7 µM with MALME-3M melanoma; 50.6 µM in the test on SF-268 CNS. In addition, the TGI in the test on SF-295 CNS was 55 µM; in the test on U251 CNS, 30.4 µM; with UACC-62 melanoma, 35.9 µM; with XF 498 CNS it was 48.4 µM.
`O=S(O)CCCCCSSCCCCSSCCCCCS(=O)O`: the TGI was above 100 µM in the test on DLD-1 colon; above 100 µM with HOP-18 NSCLC; above 100 µM in the test with HOP-62 NSCLC; above 100 µM with KM20L2 colon; 86.6 µM in the test on MALME-3M melanoma; above 100 µM in the test on SF-268 CNS. In addition, the TGI in the test with SF-295 CNS, with U251 CNS, with UACC-62 melanoma and in the test on XF 498 CNS was above 100 µM each time.
For the molecule `CC1C[C@H](OC(N)=O)C(C)CC1=O` (stereo not given in full), the TGI with DLD-1 colon, with HOP-18 NSCLC, with HOP-62 NSCLC, in the test on KM20L2 colon, in the test with MALME-3M melanoma and in the test on SF-268 CNS was above 100 µM in each case. Besides, the TGI in the test with SF-295 CNS, in the test with U251 CNS, in the test with UACC-62 melanoma and with XF 498 CNS was above 100 µM in each case.
For `CCNCC(=O)O[C@]1(CC)C(=O)OCc2c1cc1n(c2=O)Cc2cc3ccccc3nc2-1`, the TGI is above 100 µM in the test with DLD-1 colon; 20.5 µM with HOP-18 NSCLC; 0.274 µM in the test with HOP-62 NSCLC; above 100 µM in the test with KM20L2 colon; 13.2 µM with MALME-3M melanoma; above 100 µM in the test on SF-268 CNS. Moreover, the TGI in the test on SF-295 CNS amounted to 4.66 µM; with U251 CNS it was 6.61 µM; with UACC-62 melanoma, 0.677 µM; in the test on XF 498 CNS, 1.56 µM.
Regarding `Cc1ccc(NC(=O)c2cccc([N+](=O)[O-])c2O)c([N+](=O)[O-])c1`, the TGI turned out to be 39.9 µM in the test with DLD-1 colon; 91.1 µM in the test on HOP-18 NSCLC; 37.6 µM in the test on HOP-62 NSCLC; 70.4 µM with KM20L2 colon; 30.8 µM in the test on MALME-3M melanoma; 54.9 µM in the test on SF-268 CNS. Also, the TGI worked out at 32.8 µM in the test on SF-295 CNS, 38.9 µM with U251 CNS, 24.8 µM with UACC-62 melanoma and 36.2 µM with XF 498 CNS.
`CSC(C1c2ccccc2N(C)C2=NC(=O)N(C)C(=O)C21Cl)S(=O)(=O)c1ccc(C)cc1` (stereo not given): the TGI in the test on DLD-1 colon, with HOP-18 NSCLC, in the test with HOP-62 NSCLC, in the test with KM20L2 colon, in the test on MALME-3M melanoma and in the test on SF-268 CNS was above 100 µM throughout. Moreover, the TGI in the test with SF-295 CNS, in the test on U251 CNS, with UACC-62 melanoma and in the test with XF 498 CNS was above 100 µM in each case.
With `CC(=O)C1CC=C(C)CC1` (stereo not given), the TGI in the test on DLD-1 colon, with HOP-18 NSCLC, in the test on HOP-62 NSCLC, in the test on KM20L2 colon, with MALME-3M melanoma and with SF-268 CNS was above 100 µM in each case. In addition, the TGI in the test on SF-295 CNS, with U251 CNS, in the test with UACC-62 melanoma and in the test on XF 498 CNS was above 100 µM in each case.
For `C=C/C=C(\NC(=O)C(Cl)(Cl)Cl)[Si](C)(C)C`, the TGI in the test on DLD-1 colon, with HOP-18 NSCLC, in the test on HOP-62 NSCLC, with KM20L2 colon, in the test with MALME-3M melanoma and with SF-268 CNS was above 100 µM throughout. In addition, the TGI with SF-295 CNS, with U251 CNS, in the test with UACC-62 melanoma and in the test with XF 498 CNS was above 100 µM in each case.
Regarding `CC(=O)OC1CC(n2cc(F)c(=O)[nH]c2=O)OC1CO` (stereo not given), the TGI is above 100 µM with DLD-1 colon; above 100 µM with HOP-18 NSCLC; 10.1 µM in the test with HOP-62 NSCLC; above 100 µM in the test with KM20L2 colon; above 100 µM in the test with MALME-3M melanoma; above 73.8 µM in the test on SF-268 CNS. In addition, the TGI in the test with SF-295 CNS was above 89 µM; in the test on U251 CNS, above 100 µM; in the test on UACC-62 melanoma, above 22.4 µM; in the test with XF 498 CNS, 83.8 µM.
In the case of `COC1(OC)CC2C=C(S(=O)(=O)c3ccccc3)C1N(Cc1ccccc1)C2=O` (stereo not given), the TGI in the test with DLD-1 colon was 96.2 µM; with HOP-18 NSCLC, above 100 µM; in the test with HOP-62 NSCLC it was above 100 µM; with KM20L2 colon, 97.6 µM; in the test with MALME-3M melanoma it was above 100 µM; in the test with SF-268 CNS it was above 100 µM. In addition, the TGI is above 100 µM with SF-295 CNS, above 100 µM in the test with U251 CNS, 58.4 µM in the test on UACC-62 melanoma and 48.1 µM in the test on XF 498 CNS.
Turning to `N#CC(C(=O)/C(=N\Nc1nc(=S)[nH]n1N)C(C#N)c1ccc(Cl)cc1)c1ccc(Cl)cc1` (stereo not given), the TGI in the test on DLD-1 colon, in the test with HOP-18 NSCLC, with HOP-62 NSCLC, with KM20L2 colon, in the test with MALME-3M melanoma and with SF-268 CNS was above 100 µM each time. Also, the TGI with SF-295 CNS, with U251 CNS, in the test with UACC-62 melanoma and with XF 498 CNS was above 100 µM each time.
Consider `COc1ccc(C(O)/C(=N\NC(N)=S)c2nc3ccc([N+](=O)[O-])cc3[nH]c2=O)cc1OC` (stereo not given), for which the TGI with DLD-1 colon, in the test with HOP-18 NSCLC, with HOP-62 NSCLC, in the test on KM20L2 colon, in the test on MALME-3M melanoma and in the test on SF-268 CNS was above 100 µM each time. Also, the TGI in the test on SF-295 CNS, with U251 CNS, in the test with UACC-62 melanoma and in the test on XF 498 CNS was above 100 µM each time.
On to `CC(=O)O/N=C/c1ncccc1OC(C)=O`, for which the TGI with DLD-1 colon, in the test on HOP-18 NSCLC, in the test with HOP-62 NSCLC, in the test with KM20L2 colon, in the test with MALME-3M melanoma and in the test with SF-268 CNS was above 100 µM throughout. The TGI with SF-295 CNS, with U251 CNS, with UACC-62 melanoma and in the test on XF 498 CNS was above 100 µM each time.

For the origin of these results see PubChem BioAssay (NCI).
